Values after ≈ are worked out from the molar mass of the structure shown. Read-outs that look alike come from different tables or passages of the source. Peptide text beside a SMILES is read from it. * marks the point of attachment. Lauroyl = CCCCCCCCCCCC(=O)*
Experiments:
[1] = design: method as in PMID 36559096; conditions: conductivity values; cited from earlier work
[2] = design: method as in PMID 36559096; conditions: CO2 Headspace test, pass level 60%; cited from earlier work
[3] = Surface tension, pendant drop tensiometer (cmc, γc); assay type: physicochemical; conditions: for cmc: from surface tension
Protocol: Surface tension was measured using a custom-built pendant drop tensiometer, as described in detail in reference. Briefly, a droplet of surfactant solution is formed at the tip of a straight-cut Teflon tube. The image of the droplet is captured using a webcam, and its shape is analyzed by fitting the droplet profile to the Laplace–Young equation [14], To minimize evaporation, all measurements were conducted in a saturated humid atmosphere. The use of this technique is especially well-suited for cationic surfactants because it helps to mitigate complications related to surface adsorption. Critical micelle concentration values (cmc) were determined by finding the intersection of the linear fits before and after the break in the curves.

erythrocytes = experiment: Hemolytic activity assay; assay type: cell-based; conditions: rabbit erythrocytes
Protocol: Fresh rabbit blood was obtained from the Animal Facility of the CID-CSIC (Research and Development Center, Spanish National Research Council, Barcelona, Spain). Sample collection was conducted in strict compliance with the bioethical guidelines established under Spanish legislation. Erythrocytes were isolated by centrifugation (3000 rpm/10 min). The supernatant was discarded, and the erythrocytes were washed three times with PBS (phosphate-buffered saline, pH 7.4) and then resuspended in PBS at a concentration of 8 × 10^9 cells/mL. Subsequently, varying volumes of a concentrated surfactant solution were added to Eppendorf tubes containing 25 μL of erythrocyte suspension. PBS was then added to bring the total volume to 1 mL. The samples were gently shaken for 10 min at room temperature and centrifuged at 10,000 rpm for 5 min. Hemolysis was evaluated by measuring the absorbance of the supernatant at 540 nm and comparing it to that of a 100% hemolysis control (erythrocytes treated with distilled water). The HC50, defined as the surfactant concentration that induces 50% hemolysis, was determined from the concentration–response curves: % hemolysis= Abstest compound/AbsBasal haemolytic activity ×100

C. albicans biofilms = experiment: Eradication of mature biofilm, MTT method; assay type: cell-based, Candida albicans; conditions: highest concentration tested
Protocol: Candida strains were cultured in SBA at 30 °C for 24 h. Yeast cells were then suspended in RPMI 1640 broth to a final concentration of 1.5 × 10^7 CFU/mL. For mature biofilm formation, 200 μL of these suspensions was transferred to each well of a 48-well microplate and incubated at 30 °C for 24 h. After incubation, the plate was washed with phosphate-buffered saline (PBS) to remove non-adherent cells. Then, surfactant solutions at various concentrations (200 μL), prepared in RPMI 1640, were added to the wells containing the mature biofilms. Plates were incubated again at 30 °C for 24 h. Following this treatment, the RPMI medium was removed, and wells were washed twice with PBS. To assess biofilm viability, 200 μL of MTT solution (3-(4,5-dimethylthiazol-2-yl)-2,5-diphenyltetrazolium bromide) were added to each well, and plates were incubated for 4 h. After incubation, the MTT solution was removed, and 200 μL of dimethyl sulfoxide (DMSO) were added to solubilize the formazan crystals. Absorbance at 540 nm (A540) was then measured using a microplate reader. Controls without the amino acid-based surfactants were included. All experiments were made in quadruplicate, and the results were averaged to ensure accuracy and reproducibility.
In this section, we have tested the ability of these cationic surfactants to eradicate mature fungal biofilms of C. albicans and C. tropicalis. Preformed biofilms of these two strains on 48-well plates were exposed to various concentrations of the synthesized surfactants, and the biofilm was not removed after the treatment was quantified using the MTT method (3-[4,5-dimethylthiazol-2-yl]-2,5 diphenyl tetrazolium bromide) (Figure 4). This method detects viable and metabolically active cells within the biofilm by measuring the reduction in MTT to formazan by active mitochondrial enzymes.

[4] = system: Candida albicans ATCC 90028; experiment: MIC broth microdilution; assay type: cell-based; conditions: C. albicans; for MIC: Candida albicans, ATCC90028, read-out: MIC
Protocol: (§1) The antimicrobial activity of these compounds was assessed against selected yeast and bacterial strains: Candida albicans ATCC 90028 (CA9), Candida rugosa ATCC 10571 (CR), Candida glabrata ATCC 66032 (CG), Candida parapsilosis ATCC 22019 (CP), Candida tropicalis ATCC 7349 (CT), Candida auris ATCC 21092 (CA), and Cyberlindnera jadinii ATCC 60459. Frozen yeast stocks were plated on Sabouraud agar (SBA) and incubated at 30 °C for 24 h. Three to four colonies from each strain were then suspended in RPMI 1640 (Roswell Park Memorial Institute medium, Sigma- Aldrich, Merck, Darmstadt, Germany) to prepare bacterial dispersions of ~1.5 × 10^6 CFU/mL.
(§2) A broth microdilution assay was used to calculate MIC values. Twofold serially diluted compounds in RPMI 1640 medium (from 256 to 2 μg/mL), were dispensed (100 μL per well) into a 96-well plate. Then, 100 μL of a yeast starter culture was added to each well to reach a final inoculum of 7.5 × 10^5 CFU/mL. Wells containing only nutrient broth without the tested surfactant served as growth controls. Microbial growth was assessed by turbidity, which reflects increases in biomass and cell count. […] To confirm the obtained MICs, 20 μL of 0.015% (w/v) resazurin was dispensed to each well and incubated for 3 h at 30 °C. Metabolic activity was evidenced by a color change from blue to pink, thereby confirming the MIC value.

[5] = system: Candida tropicalis ATCC 7349; experiment: MIC broth microdilution; assay type: cell-based; conditions: C. tropicalis; for MIC: Candida tropicalis, ATCC7349, read-out: MIC
Protocol: as §1, §2

[6] = system: Candida rugosa ATCC 10571; experiment: MIC broth microdilution; assay type: cell-based; conditions: C. rugosa; for MIC: Diutina rugosa, ATCC10571, read-out: MIC
Protocol: as §1, §2

[7] = system: Cyberlindnera jadinii ATCC 60459 (C. jardinii); experiment: MIC broth microdilution; assay type: cell-based; conditions: for Selectivity Index (HC50/MIC): C. jardini; for MIC: Williopsis jadinii
Protocol: as §1, §2

Candida auris ATCC 21092 = experiment: MIC broth microdilution; assay type: cell-based; conditions: C. auris; for MIC: Candidozyma auris, ATCC21092, read-out: MIC
Protocol: as §1, §2

[8] = system: Candida parapsilosis ATCC 22019; experiment: MIC broth microdilution; assay type: cell-based; conditions: C. parapsilosis; for MIC: Lodderomyces parapsilosis, ATCC22019, read-out: MIC
Protocol: as §1, §2

[9] = system: Candida glabrata ATCC 66032; experiment: MIC broth microdilution; assay type: cell-based; conditions: for MIC: Nakaseomyces glabratus, read-out: MIC
Protocol: as §1, §2

S. aureus SH1000 [10] = system: S. aureus SH1000; design: method as in PMID 19889790; conditions: cited from earlier work
S. aureus SH1000 [11] = system: S. aureus SH1000; design: method as in PMID 19889790; conditions: cited from earlier work; remark: listed apart in the source
Daphnia magna = experiment: Acute toxicity, immobilization test; assay type: in vivo
Protocol: Aquatic toxicity evaluation was performed using Daphnia magna following established protocols. This bioassay method employs laboratory-cultured freshwater microcrustaceans to evaluate surfactant toxicity in aquatic environments. Test organisms were utilized during their initial 24 h life stage to ensure consistency. The endpoint measurement focused on mobility impairment, specifically the loss of swimming capability after gentle stimulation lasting 15 s. Testing conditions included controlled water chemistry parameters: pH maintained at 8.0, calcium-to-magnesium ratio of 4:1, and total hardness of 250 mg/L as CaCO3. All experiments were conducted under dark conditions at 20 °C. The experimental design incorporated ten test concentrations for each surfactant compound, distributed in geometric progression. Each concentration level included 20 Daphnia specimens distributed across four replicate groups of five organisms each. Mobility assessment occurred at 48 h post-exposure, with immobilization percentages plotted against concentration using probability–logarithmic scaling.

Vibrio fischeri = experiment: Luminescence reduction test; assay type: cell-based; conditions: Aliivibrio fischeri, 0.25 h; Vibrio fischeri bioluminescence, 15 min of exposure; 95% confidence intervals in parentheses
Protocol: Ecotoxicological assessment of cationic surfactants was conducted using the Vibrio fischeri luminescent bioassay. This method relies on the measurement of decreased bioluminescent output from marine bacteria following contact with potentially toxic substances. Regression analysis was used to determine the concentration of the compound that caused a 50% reduction (EC50) in the amount of light emitted by the bacteria. The stated toxicity statistics given are based on the bacteria being exposed to the ionic liquid solution for 15 min at 15 °C.

[12] = ATCC66032, 24 h, C. glabrata, RPMI 1640, 24 h, 30 °C
[13] = ATCC66032, C. glabrata, value in parentheses
[14] = ATCC60459, C. jardinii, RPMI 1640, 24 h, 30 °C, read-out: MIC
[15] = ATCC60459, C. jardinii, value in parentheses, read-out: MIC

Row | Compound | MIC ([4]; RPMI 1640, 24 h, 30 °C) | MIC ([4]; value in parentheses) | MIC ([5]; RPMI 1640, 24 h, 30 °C) | MIC ([5]; value in parentheses) | MIC ([6]; RPMI 1640, 24 h, 30 °C) | MIC ([6]; value in parentheses) | MIC (Candida auris ATCC 21092; RPMI 1640, 24 h, 30 °C) | MIC (Candida auris ATCC 21092; value in parentheses) | MIC ([8]; RPMI 1640, 24 h, 30 °C) | MIC ([8]; value in parentheses) | MIC [9, 12] | MIC [9, 13] | MBEC (S. aureus SH1000 [10]) | MIC (S. aureus SH1000 [11]) | other results
1 | CCCCCCCCCCCC(=O)NC(Cc1c[nH]c2ccccc12)C(=O)NC(CCCNC(=N)N)C(=O)OC (stereo not drawn) [C12TAM] (Lauroyl-Trp-Arg-OMe; configuration not given here) | 32 µg/mL | 54 µM | 16 µg/mL | 27 µM | 8 µg/mL | 13 µM | 16 µg/mL | 27 µM | 16 µg/mL | 27 µM | 16 µg/mL | 27 µM | – | – | cmc Cond [1]: 0.5 mM; biodegradation [2]: over 60%; γc (surface tension at the cmc) [3]: 32.1 ± 2.3 mNm^−1; cmc [3]: 0.65 mM; HC50 (erythrocytes; 10 min, room temperature): 24 ± 0.8 µg/mL; HC50 (erythrocytes; value in parentheses): 40 ± 1.6 µM; reduction of the metabolic activity of the biofilm (C. albicans biofilms): less than 65%; Selectivity Index (HC50/MIC) ([4]; Table S1): 0.7; Selectivity Index (HC50/MIC) ([5]; Table S1): 1.4; Selectivity Index (HC50/MIC) ([6]; Table S1): 3; Selectivity Index (HC50/MIC) ([7]; Table S1): 0.7; MIC ([7]; ATCC60459): 54 µM; MIC ([7]; ATCC60459, 24 h): 32 µg/mL; Selectivity Index (HC50/MIC) (Candida auris ATCC 21092; Table S1): 1.4; Selectivity Index (HC50/MIC) ([8]; Table S1): 1.4; Selectivity Index (HC50/MIC) ([9]; C. glabrata, Table S1): 1.4
2 | CCCCCCCCCCCCCCCC[N+](C)(C)C.[Br-] [CTAB] | – | – | – | – | – | – | – | – | – | – | – | – | > 256 µg/mL | 2 µg/mL | –
3 | CCCCCCCCNC(=O)C(CCCNC(=N)N)NC(=O)C(N)Cc1ccccc1 (stereo not shown) [PANHC8] | > 256 µg/mL | > 512 µM | 256 µg/mL | 512 µM | > 256 µg/mL | > 512 µM | > 256 µg/mL | > 512 µM | 256 µg/mL | 512 µM | 256 µg/mL | 512 µM | – | – | MIC [7, 14]: > 256 µg/mL; MIC [7, 15]: > 512 µM
4 | CCCCCCCCCCCCCCNC(=O)C(CCCNC(=N)N)NC(=O)C(N)Cc1c[nH]c2ccccc12 (stereo not shown) [TANHC14] | 16 µg/mL | 25 µM | 4 µg/mL | 7 µM | 4 µg/mL | 7 µM | 16 µg/mL | 25 µM | 16 µg/mL | 25 µM | 8 µg/mL | 14 µM | – | – | cmc Cond [1]: 0.3 mM; EC50 (Daphnia magna; Daphnia magna, 48 h): 0.85 µg/mL (≈ 1.53 µM); EC50 (Vibrio fischeri): 2.6 µg/mL (≈ 4.68 µM); γc (surface tension at the cmc) [3]: 32.8 ± 1.2 mNm^−1; cmc [3]: 0.7 mM; HC50 (erythrocytes; 10 min, room temperature): 16 ± 0.18 µg/mL; HC50 (erythrocytes; value in parentheses): 26 ± 0.3 µM; Selectivity Index (HC50/MIC) ([4]; Table S2): 1.1; Selectivity Index (HC50/MIC) ([5]; Table S2): 3.7; Selectivity Index (HC50/MIC) ([6]; Table S2): 3.7; Selectivity Index (HC50/MIC) ([7]; Table S2): 1.9; MIC [7, 14]: 8 µg/mL; MIC [7, 15]: 14 µM; Selectivity Index (HC50/MIC) (Candida auris ATCC 21092; Table S2): 1.1; Selectivity Index (HC50/MIC) ([8]; Table S2): 1.1; Selectivity Index (HC50/MIC) ([9]; C. glabrata, Table S2): 1.9
5 | [H]/N=C(\N/C(=N/[H])NCCCCCCNC(=N)NC(=N)Nc1ccc(Cl)cc1)Nc1ccc(Cl)cc1 [chlorhexidine] | – | – | – | – | – | – | – | – | – | – | – | – | > 256 µg/mL | 1 µg/mL (≈ 1.98 µM) | –
6 | O=C(O)c1cn(C2CC2)c2cc(N3CCNCC3)c(F)cc2c1=O [ciprofloxacin] | – | – | – | – | – | – | – | – | – | – | – | – | > 256 µg/mL | 4 µg/mL (≈ 12.1 µM) | –
7 | CN(C)[C@@H]1C(O)=C(C(N)=O)C(=O)[C@@]2(O)C(O)=C3C(=O)c4c(O)cccc4[C@@](C)(O)[C@H]3C[C@@H]12 [tetracycline] | – | – | – | – | – | – | – | – | – | – | – | – | > 256 µg/mL | 0.5 µg/mL (≈ 1.13 µM) | –
8 | dodecyl dimethyl ammonium bromide [DDAB, reference compound] | – | – | – | – | – | – | – | – | – | – | – | – | – | – | EC50 (Daphnia magna; Daphnia magna immobilization, 48 h of exposure, 95% confidence intervals in parentheses): 0.15 (0.14–0.17) μg/mL
